ChEMBL document CHEMBL4364252, “Tetrahydropyrazolo[1,5-a]pyridine-fused steroids and their in vitro biological evaluation in prostate cancer” (2019)
The source made the active and inactive calls. The rule behind the calls is not given here.

How the values were obtained:
PC-3 [1] = assay: Antiproliferative activity against AR-negative human PC3 cells assessed as cell viability at 40 uM measured after 72 hrs by resazurin dye based fluorescence assay relative to control; type: functional; conditions: PC-3, 72 h, read-out: Activity
CWR22R [2] = assay: Antiproliferative activity against AR-positive human 22Rv1 cells harboring ARE14 construct assessed as cell viability at 40 uM measured after 72 hrs by resazurin dye based fluorescence assay relative to control; type: functional; conditions: 22Rv1, 72 h, read-out: Activity
VCaP [3] = assay: Antiproliferative activity against AR-positive human VCaP cells assessed as cell viability at 40 uM measured after 72 hrs by resazurin dye based fluorescence assay relative to control; type: functional; conditions: read-out: Activity
CWR22R [4] = assay: Effect on AR-V7 variant protein expression in AR-positive human 22Rv1 cells harboring ARE14 construct at 10 uM after 24 hrs by immunoblot analysis; type: functional, cell-based
PC-3 [5] = assay: Antiproliferative activity against AR-negative human PC3 cells assessed as growth inhibition measured after 72 hrs by resazurin dye based fluorescence assay; type: functional; conditions: PC-3, 72 h
CWR22R [6] = assay: Antiproliferative activity against human AR-positive 22Rv1 cells harboring ARE14 construct assessed as growth inhibition measured after 72 hrs by resazurin dye based fluorescence assay; type: functional; conditions: 22Rv1, 72 h
VCaP [7] = assay: Antiproliferative activity against AR-positive human VCaP cells assessed as growth inhibition measured after 72 hrs by resazurin dye based fluorescence assay; type: functional
[8] = molecular target: T1, Androgen receptor (Homo sapiens) (UniProt P10275); conditions: at 10 µM
T1 sequence (whole entry): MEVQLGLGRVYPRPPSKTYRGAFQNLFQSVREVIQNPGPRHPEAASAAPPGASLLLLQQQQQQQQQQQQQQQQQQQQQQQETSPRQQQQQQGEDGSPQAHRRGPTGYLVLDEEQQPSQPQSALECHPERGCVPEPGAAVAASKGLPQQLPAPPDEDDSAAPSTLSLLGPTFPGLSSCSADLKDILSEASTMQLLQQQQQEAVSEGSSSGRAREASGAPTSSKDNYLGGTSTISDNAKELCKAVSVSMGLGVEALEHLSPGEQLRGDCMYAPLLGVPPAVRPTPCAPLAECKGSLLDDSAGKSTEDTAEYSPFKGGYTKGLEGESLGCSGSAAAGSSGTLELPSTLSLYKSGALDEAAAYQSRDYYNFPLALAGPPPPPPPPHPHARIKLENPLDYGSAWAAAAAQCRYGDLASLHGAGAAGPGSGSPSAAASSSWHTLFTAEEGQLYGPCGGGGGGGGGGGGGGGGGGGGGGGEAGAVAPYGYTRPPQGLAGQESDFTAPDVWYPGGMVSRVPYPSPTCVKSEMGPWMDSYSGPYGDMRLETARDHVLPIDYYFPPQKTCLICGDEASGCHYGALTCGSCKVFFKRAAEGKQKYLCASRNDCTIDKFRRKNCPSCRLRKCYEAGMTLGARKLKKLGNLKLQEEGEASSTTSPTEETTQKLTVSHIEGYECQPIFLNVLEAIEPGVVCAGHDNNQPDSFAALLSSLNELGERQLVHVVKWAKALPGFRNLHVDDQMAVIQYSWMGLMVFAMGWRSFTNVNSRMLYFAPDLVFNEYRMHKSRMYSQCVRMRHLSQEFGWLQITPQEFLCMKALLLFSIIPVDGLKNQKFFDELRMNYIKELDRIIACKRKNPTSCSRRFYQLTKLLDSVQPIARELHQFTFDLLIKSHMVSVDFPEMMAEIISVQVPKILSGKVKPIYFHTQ
Description: Inhibition of AR transcriptional activity in AR-positive human 22Rv1 cells harboring ARE14 construct assessed as suppression of NKX3.1 expression at 10 uM after 24 hrs by immunoblot analysis

[9] = molecular target: T1, Androgen receptor (Homo sapiens); conditions: at 10 µM; remark: listed apart in the source
Description: Inhibition of AR transcriptional activity in AR-positive human 22Rv1 cells harboring ARE14 construct assessed as suppression of PSA expression at 10 uM after 24 hrs by immunoblot analysis

[10] = molecular target: T1, Androgen receptor (Homo sapiens); conditions: at 10 µM; remark: listed apart in the source
Description: Inhibition of R1881 induced-AR transcriptional activity in AR-positive human 22Rv1 cells harboring ARE14 construct at 10 uM after 24 hrs by luciferase assay

LNCaP [11] = assay: Antiproliferative activity against AR-positive human LNCAP cells assessed as cell viability at 40 uM measured after 72 hrs by resazurin dye based fluorescence assay relative to control; type: functional; conditions: read-out: Activity
LAPC4 [12] = assay: Antiproliferative activity against AR-positive human LAPC4 cells assessed as cell viability at 40 uM measured after 72 hrs by resazurin dye based fluorescence assay relative to control; type: functional; conditions: LAPC4, 72 h, read-out: Activity
LAPC4 [13] = assay: Antiproliferative activity against AR-positive human LAPC4 cells assessed as growth inhibition measured after 72 hrs by resazurin dye based fluorescence assay; type: functional; conditions: LAPC4, 72 h
LNCaP [14] = assay: Antiproliferative activity against AR-positive human LNCAP cells assessed as growth inhibition measured after 72 hrs by resazurin dye based fluorescence assay; type: functional

| SMILES | viability at 40 µM (PC-3 [1]) [%] | viability at 40 µM (CWR22R [2]) [%] | viability at 40 µM (VCaP [3]) [%] | Activity (CWR22R [4]) | GI50 (PC-3 [5]) [µM] | GI50 (CWR22R [6]) [µM] | GI50 (VCaP [7]) [µM] | inhibition [8] | inhibition [9] | inhibition [10] | viability at 40 µM (LNCaP [11]) [%] | viability at 40 µM (LAPC4 [12]) [%] | GI50 (LAPC4 [13]) [µM] | GI50 (LNCaP [14]) [µM] |
| --- | --- | --- | --- | --- | --- | --- | --- | --- | --- | --- | --- | --- | --- | --- |
| CC(=O)[C@@]12Cc3c(C(=O)O)cnn3C[C@@H]1C[C@H]1[C@@H]3CCC4=CC(=O)CC[C@]4(C)[C@H]3CC[C@@]12C | > 100 | 92.4 | 95.7 | inactive | > 40 | > 40 | > 40 | inactive | inactive | inactive |  |  |  |  |
| CNC(=O)c1ccc(N2C(=S)N(c3ccc(C#N)c(C(F)(F)F)c3)C(=O)C2(C)C)cc1F [ENZALUTAMIDE] | 88.7 | 84 | 61.2 |  |  |  |  |  |  |  | 94.2 | 80.3 |  |  |
| COC(=O)c1nn2c(c1C(=O)OC)C[C@]1(C(C)=O)[C@@H](C[C@H]3[C@@H]4CC=C5C[C@@H](OC(C)=O)CC[C@]5(C)[C@H]4CC[C@@]31C)[C@H]2Cc1ccccc1 | > 100 | 15 | 85.9 | inactive | > 40 | > 40 | > 40 | inactive | inactive | inactive | 89.7 | > 100 | > 40 | > 40 |
| COC(=O)c1nn2c(c1C(=O)OC)C[C@]1(C(C)=O)[C@@H](C[C@H]3[C@@H]4CCC5=CC(=O)CC[C@]5(C)[C@H]4CC[C@@]31C)[C@H]2Cc1ccccc1 | > 100 | 63.3 | 80.7 | inactive | > 40 | > 40 | > 40 |  | Active | inactive | 80.6 | 97.2 | > 40 | > 40 |
| C[C@@H](O)[C@@]12Cc3c(CO)cnn3C[C@@H]1C[C@H]1[C@@H]3CC=C4C[C@@H](O)CC[C@]4(C)[C@H]3CC[C@@]12C | > 100 | 96.3 | 96.7 | inactive | > 40 | > 40 | > 40 |  |  | inactive | 82.8 | 92.2 | > 40 | > 40 |
| C[C@@H](O)[C@@]12Cc3c(CO)c(CO)nn3[C@H](Cc3ccccc3)[C@@H]1C[C@H]1[C@@H]3CC=C4C[C@@H](O)CC[C@]4(C)[C@H]3CC[C@@]12C | > 100 | 55.8 | 43 | inactive | > 40 | > 40 | > 40 |  | Active | inactive | 89.7 | 85.9 | > 40 | > 40 |
| COC(=O)c1nn2c(c1C(=O)OC)C[C@]1(C(C)=O)[C@@H](C[C@H]3[C@@H]4CC=C5C[C@@H](O)CC[C@]5(C)[C@H]4CC[C@@]31C)C2 | 71.7 | 88 | > 100 | inactive | > 40 | > 40 | > 40 | inactive | inactive | inactive |  |  |  |  |
| COC(=O)c1cnn2c1C[C@]1(C(C)=O)[C@@H](C[C@H]3[C@@H]4CC=C5C[C@@H](OC(C)=O)CC[C@]5(C)[C@H]4CC[C@@]31C)C2 | > 100 | 83.3 | 84.9 | inactive | > 40 | > 40 | > 40 |  | Active | inactive |  |  |  |  |
| COC(=O)c1cnn2c1C[C@]1(C(C)=O)[C@@H](C[C@H]3[C@@H]4CC=C5C[C@@H](O)CC[C@]5(C)[C@H]4CC[C@@]31C)C2 | 89.6 | 78.5 | 90.4 | inactive | > 40 | > 40 | > 40 | Active | Active | inactive |  |  |  |  |
| COC(=O)c1nn2c(c1C(=O)OC)C[C@]1(C(C)=O)[C@@H](C[C@H]3[C@@H]4CCC5=CC(=O)CC[C@]5(C)[C@H]4CC[C@@]31C)C2 | 94 | 73.5 | 80.3 | inactive | > 40 | > 40 | > 40 | Active | inactive | inactive |  |  |  |  |
| C[C@@H](O)[C@@]12Cc3c(CO)c(CO)nn3C[C@@H]1C[C@H]1[C@@H]3CC=C4C[C@@H](O)CC[C@]4(C)[C@H]3CC[C@@]12C | > 100 | 95.8 | 96.3 | inactive | > 40 | > 40 | > 40 | Active | inactive | inactive | 92.8 | 97.5 | > 40 | > 40 |
| COC(=O)c1nn2c(c1C(=O)OC)C[C@]1(C(C)=O)[C@@H](C[C@H]3[C@@H]4CC=C5C[C@@H](O)CC[C@]5(C)[C@H]4CC[C@@]31C)[C@H]2Cc1ccccc1 | 64.7 | 28.4 | 57 | inactive | > 40 | > 40 | > 40 | inactive | inactive | inactive | 83.5 | 81.3 | > 40 | > 40 |
